Assay results taken from US11851696B2, “Microorganisms and process for producing glycolic acid from pentoses and hexoses” (Institut National Des Sciences Appliquées De Toulouse, priority 2018, dated 2023).

Legend:
[1] = system: fructose-6-phosphate aldolase (FSA); conditions: aldolytic activity on D-arabinose-5-phosphate vs fructose-6-phosphate; cited from earlier work
[2] = target: T1, E. coli K12 MG1655 aldehyde dehydrogenase (glycolaldehyde dehydrogenase, AldA), polyhistidine-tagged (aldA-His), wild type, SEQ ID NO: 4 (Escherichia coli, UniProt P25553); test: AldA (aldehyde dehydrogenase) activity on glycolaldehyde, NADH at 340 nm; type: biochemical
T1 sequence (P25553 1-479): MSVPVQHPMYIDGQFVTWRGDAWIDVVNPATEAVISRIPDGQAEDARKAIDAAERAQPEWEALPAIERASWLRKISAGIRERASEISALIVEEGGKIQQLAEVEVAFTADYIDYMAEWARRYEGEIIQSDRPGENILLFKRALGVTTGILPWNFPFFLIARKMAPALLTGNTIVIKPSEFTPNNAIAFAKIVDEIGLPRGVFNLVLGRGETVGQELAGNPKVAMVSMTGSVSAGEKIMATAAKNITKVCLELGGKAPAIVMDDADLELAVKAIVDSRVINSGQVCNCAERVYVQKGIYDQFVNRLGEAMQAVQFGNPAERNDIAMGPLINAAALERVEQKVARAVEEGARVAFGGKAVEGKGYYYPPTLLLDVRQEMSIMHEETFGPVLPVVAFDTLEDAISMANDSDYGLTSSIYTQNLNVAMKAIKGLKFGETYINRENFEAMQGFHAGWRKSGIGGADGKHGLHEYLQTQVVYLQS
Text: To construct a system in vitro, the inventors have cloned the ORFs (“Open Reading Frames”) of the xylose isomerase (XylA), xylulokinase (XylB), arabinose isomerase (AraA), ribulose kinase (AraB), L-ribulose-5-phosphate 4-epimerase (AraD), ribulose-5-phosphate-3-epimerase (RPE), D-arabinose-5-phosphate isomerase (KdsD), fructose-6-phosphate aldolase (FSA corresponding to FSAA such as previously defined) and aldehyde dehydrogenase (AdA) of E. coli K12 MG1655 with a polyhistidine tag for a facilitated purification. […] The E. coli genomic DNA which served as on template is that of the strain K12 MG1655.
A pre-culture in a LB (for “Luria-Bertani”) medium added with the antibiotic kanamycin is made overnight at 37° C. The pre-culture is used to seed a fresh culture of 200 mL of LB-Kanamycin at an optical density at 600 nm (OD600) of 0.1 (37° C., 200 rpm). When the OD600 is between 0.6 and 0.8, the expression of the protein of interest is induced by adding finally 1 mM IPTG. The proteins are expressed overnight at 16° C. The cells are collected as 50 ml fractions and centrifuged at 4 800 rpm for 15 min at 4° C. The cell pellets are preserved at −20° C. […]
Measurement of the aldehyde dehydrogenase (AldA) activity: this activity has been measured in the presence of 5 mM glycoaldehyde, 3 mM NAD^+ and 3 mM ATP. […]

[3] = substrate: O=P(O)(O)OC[C@H]1OC(O)[C@@H](O)[C@@H]1O; test: FSA (fructose-6P aldolase) activity on D-arabinose-5P, coupled to AldA or to TPI and G3PDH, NADH at 340 nm; type: biochemical, Escherichia coli K12 MG1655; conditions: other: substrate D-arabinose-5P, 100 mM Tris, pH 7.5, 10 mM MgCl2, 37° C., coupled to AldA (2 mM NAD+) or TPI/G3PDH (0.4 mM NADH)
Text: To construct a system in vitro, the inventors have cloned the ORFs (“Open Reading Frames”) of the xylose isomerase (XylA), xylulokinase (XylB), arabinose isomerase (AraA), ribulose kinase (AraB), L-ribulose-5-phosphate 4-epimerase (AraD), ribulose-5-phosphate-3-epimerase (RPE), D-arabinose-5-phosphate isomerase (KdsD), fructose-6-phosphate aldolase (FSA corresponding to FSAA such as previously defined) and aldehyde dehydrogenase (AdA) of E. coli K12 MG1655 with a polyhistidine tag for a facilitated purification. The oligonucleotides used for amplifying ORFS of the E. coli enzymes are listed in Table 3 below, the sequences SEQ ID NO: making reference to the appended sequence listing. The E. coli genomic DNA which served as on template is that of the strain K12 MG1655.
The plasmids for the expression of the C-terminal polyhistidine tagged proteins XylA, XylB, AraA, AraB, AraD, AraB, Rpe, KdsD, FSA, AdA have been constructed by HiFi Assembly® (NEB) with pET28a as a receiving vector. pET28a has been linearised beforehand with the restriction enzymes HindIII and BamHI (NEB) (Table 4). The E. coli strain NEB5®, derived from DH5 alpha, has been used for cloning and storing the different plasmids.
All the proteins expressed are soluble and have been produced from the expression vector pET28a transformed in an E. coli strain BL21 (DE3). […]

[4] = substrate: O=CCO; test: purified protein, by the assay type; conditions: other: substrate glycolaldehyde, 100 mM Tris, pH 7.5, 10 mM MgCl2, 37° C., 3 mM NAD+, 3 mM ATP

O=P(O)(O)OC[C@H]1OC(O)[C@@H](O)[C@@H]1O (stereo partly drawn) [D-arabinose-5P, D-arabinose-5-phosphate]
affinity (times higher than for fructose-6-phosphate) [1]: 10 times

O=CCO [glycolaldehyde]
Vmax ([2]; substrate glycolaldehyde (5 mM glycoaldehyde in method), 100 mM Tris, pH 7.5, 10 mM MgCl2, 37° C., 3 mM NAD+, 3 mM ATP): 1.16 ± 0.31 U mg^−1 | Vmax/Km ([2]; substrate glycolaldehyde, pH 7.5, 37° C.): 5 552 .10^−6 min^−1 mg^−1

B1: E. coli K12 MG1655 fructose-6-phosphate aldolase (FSA, FSAA), polyhistidine-tagged (FSA-His), wild type, SEQ ID NO: 2 (Escherichia coli K-12) (protein)
chain: MELYLDTSDVVAVKALSRIFPLAGVTTNPSIIAAGKKPLDVVLPQLHEAMGGQGRLFAQVMATTAEGMVNDALKLRSIIADIVVKVPVTAEGLAAIKMLKAEGIPTLGTAVYGAAQGLLSALAGAEYVAPYVNRIDAQGGSGIQTVTDLHQLLKMHAPQAKVLAASFKTPRQALDCLLAGCESITLPLDVAQQMISYPAVDAAVAKFEQDWQGAFGRTSI
Km [3]: 652 ± 150 µM | Vmax [3]: 0.26 µmol/min/mg

B2: E. coli K12 MG1655 aldehyde dehydrogenase (glycolaldehyde dehydrogenase, AldA), polyhistidine-tagged (aldA-His), wild type, SEQ ID NO: 4 (Escherichia coli K-12) (protein)
chain: MSVPVQHPMYIDGQFVTWRGDAWIDVVNPATEAVISRIPDGQAEDARKAIDAAERAQPEWEALPAIERASWLRKISAGIRERASEISALIVEEGGKIQQLAEVEVAFTADYIDYMAEWARRYEGEIIQSDRPGENILLFKRALGVTTGILPWNFPFFLIARKMAPALLTGNTIVIKPSEFTPNNAIAFAKIVDEIGLPRGVFNLVLGRGETVGQELAGNPKVAMVSMTGSVSAGEKIMATAAKNITKVCLELGGKAPAIVMDDADLELAVKAIVDSRVINSGQVCNCAERVYVQKGIYDQFVNRLGEAMQAVQFGNPAERNDIAMGPLINAAALERVEQKVARAVEEGARVAFGGKAVEGKGYYYPPTLLLDVRQEMSIMHEETFGPVLPVVAFDTLEDAISMANDSDYGLTSSIYTQNLNVAMKAIKGLKFGETYINRENFEAMQGFHAGWRKSGIGGADGKHGLHEYLQTQVVYLQS
Km [4]: 210 ± 50 µM
